Publication PMC8398766, “Do Small Molecules Activate the TrkB Receptor in the Same Manner as BDNF? Limitations of Published TrkB Low Molecular Agonists and Screening for Novel TrkB Orthosteric Agonists” (Pharmaceuticals, 2021)
Entries after “also recorded” stand apart in the source; their conditions may differ.

B1: BDNF: Brain-derived neurotrophic factor, endogenous TrkB receptor agonist (protein, UniProt P23560 19-247, looked up)
Neurotrophic factor BDNF …: APMKEANIRGQGGLAYPGVRTHGTLESVNGPKAGSRGLTSLADTFEHVIEELLDEDQKVRPNEENNKDADLYTSRVMLSSQVPLEPPLLFLLEEYKNYLDAANMSMRVRRHSDPARRGELSVCDSISEWVTAADKKTAVDMSGGTVTVLEKVPVSKGQLKQYFYETKCNPMGYTKEGCRGIDKRHWNSQCRTTQSYVRALTMDSKKRIGWRFIRIDTSCVCTLTIKRGR

Assays:
[1] = test system: TrkB and downstream proteins (PLCγ1, Akt1, ERK1/2); assay: Downstream signaling immunoblot, RA-differentiated SH-SY5Y cell line; type: cell-based; details: for Phosphorylation of TrkB and downstream proteins (PLCγ1, Akt1, ERK1/2): RA-differentiated SH-SY5Y, 1, 10, 100 μM, 15 min
Description: The SH-SY5Y cell line was purchased from MilliporeSigma and cultured in growth medium: MEM (w/Earle’s Salts; w/L-Glutamine) + Ham’s F12 (w/L-Glutamine) (1:1 v/v), 1 × Antibiotic-Antimycotic, 1 × MEM Non-Essential Amino Acids (all reagents from Biowest, Riverside, MO, USA) and 15% FBS (Gibco, Thermo Fisher Scientific, Waltham, MA, USA). Cells were passaged using 0.25% Trypsin-EDTA (Biowest) and cultured in standard conditions (5% CO2, 37 °C with 95% relative humidity).
(§1) To differentiate SH-SY5Y, cells were seeded in a cell culture flask at a density of 10,000 cells/cm^2 in standard growth medium containing 10 μM retinoic acid (RA; MilliporeSigma) and cultured for 7 consecutive days. Then, differentiated cells were harvested by trypsinization (Trypsin-EDTA 1×, 3 min at 37 °C), centrifuged (250× g; 5 min at 25 °C) and counted. The desired experiment cells were seeded in differentiation medium (MEM:Ham’s F12 growth medium +10 μM RA) in multi-well plates at the following densities: 1,000,000 cells/well on a 6-well plate for lysate collection and immunoblot analysis, and 12,000 cells/well into a PDL-treated 96-well plate (BioCoat™, Corning Inc.) for neuroprotection experiments.
(§2) On the day of the experiments, cells were starved for 5 h with appropriate culture medium. SN56 T48 cells were treated with reference compounds at 100 μM or 1, 10, or 100 μM concentrations of the selected molecules, and 1, 10, and 100 ng/mL of BDNF. Differentiated SH-SY5Y cells were treated with 1, 10, or 100 μM concentrations of the tested molecules and 1, 10, and 100 ng/mL of BDNF for 15 min. For compound specificity, the evaluation cell lines were first pretreated with 1 μM K252a (MilliporeSigma, Saint Louis, MO, USA) for 15 min and then cotreated with 100 μM concentrations of the tested molecules.
(§3) Compound treatment was stopped by lysing cells with N-PER™ Neuronal Protein Extraction Reagent (Thermo Fisher Scientific) containing 1 × PhosSTOP™ (Roche, Basel, Switzerland), 1 × Halt Protease Inhibitor Single-Use Cocktail (ThermoFisher Scientific) and 5 mM EDTA. The lysates were collected by scraping, and centrifuged (8000× g; 10 min at 4 °C), and the protein concentration was determined using a BCA Pierce kit (ThermoFisher Scientific). The lysates were stored at −80 °C until further processing. Samples containing 20 μg of protein were further denatured in 4 × Laemli Buffer with 5% β-mercaptoethanol at 95 °C for 5 min and electrophoresed on gels prepared using a 10% TGX Stain-Free™ FastCast™ Acrylamide Kit (Bio-Rad). Afterwards, the proteins were transferred (wet transfer, 100 V, 60 min) onto nitrocellulose membranes (GE Healthcare, Chicago, IL, USA), which were blocked in 5% BSA in TBS-T (TBS + 0.1% Tween20) for 2 h. […] After repeated washes (TBS-T), the proteins were detected with HRP-conjugated anti-rabbit antibodies (1:4000, RT, 2 h) (Cell Signaling Technology), and the blots were incubated with Clarity Max ECL Western Blotting Substrate (Bio-Rad). Blot images and chemiluminescence signals were captured using a ChemiDoc MP Imaging System, and densitometry values were calculated using the Image Lab software (Bio-Rad). […]

[2] = test system: RA-differentiated SH-SY5Y cells; assay: Cytoprotection against MPP+-induced cytotoxicity; type: cell-based; details: MPP+ 0.5 mM, compounds 0.3, 1, 3 μM, BDNF 1, 10, 100 ng/mL, 72 h + 72 h
Description: as §1
The experiment design was adopted from the article published by Presgraves et al., (2004), with the following modifications. Differentiated SH-SY5Y were prepared as described in Section 4.3.1. On the day of the experiment (Day 0), culture medium containing 10 μM RA was changed for treatment medium composed of MEM:HAM’S F12 (1:1 v/v), 1 × Antibiotic-Antimycotic, and 1 × MEM Non-Essential Amino Acids, with the FBS reduced to 0.5%. In this step, RealTime-Glo™ reagents (Promega, Madison, WI, USA) were added to the treatment medium (to a final concentration of 0.5 × ). Cell viability was measured after 1 h of incubation at 37 °C using a luminometer (VICTOR Light 1420-060) for normalization. Then, the tested compounds and BDNF were diluted in culturing medium as 2 × concentrate (final concentrations of 0.3, 1, and 3 μM for the small molecular compounds and 1, 10, and 100 ng/mL for BDNF) and added into wells for 72 h of incubation (volume, 100 μL/well). Then (Day 3), the treatment medium was replaced with fresh medium containing 0.5 × RealTime-Glo™ reagents (volume, 100 μL/well), and the cell viability was measured for normalization. Then, compounds and BDNF were added as 4 × concentrates (volume, 50 μL/well). In addition, MPP^+ was also diluted in treatment medium and added to the wells as a 4 × concentrate (final concentration, 0.5 mM; volume, 50 μL/well). The cells were incubated for a further 72 h at 37 °C. On Day 6, the cell viability was measured 1 h after replacing the medium with the medium containing 0.5 × RealTime-Glo™ (volume 100 μL/well). The experiments were performed with three biological independent replicates, and the final cell viability (endpoint, Day 6) was normalized to the normalized cell viability calculated on Day 3.

[3] = test system: TrkB and downstream proteins (PLCγ1, Akt1, ERK1/2); assay: Downstream signaling immunoblot, SN56 T48 cell line; type: cell-based; details: for Phosphorylation of TrkB and downstream proteins (PLCγ1, Akt1, ERK1/2): compounds up to 100 μM, BDNF up to 100 ng/mL, 15 min
Description: The SN56 T48 cell line with stable overexpression of the TrkB receptor was purchased from Emory University (Atlanta, GA, USA) and cultivated according to the protocol described in Jang et al., 2010 [12]. The cell lines were cultivated with the following reagents: DMEM High Glucose, fetal bovine serum (FBS), Penicillin-Streptomycin Solution 100×, and Trypsin-EDTA 1×; all were purchased from Biowest, and G418 was from ThermoFisher Scientific. For the ELFI experiments, cells were seeded (8000/well) on a PDL-treated 96-well plate (BioCoat™, Corning Inc., Corning, NY, USA) and 6-well plate (400,000/well) for lysate collection and immunoblot analysis.
as §2, §3

[4] = Metabolic stability in mouse liver microsomes; details: compared with verapamil

Row | Molecule | Phosphorylation of TrkB and downstream proteins (PLCγ1, Akt1, ERK1/2) [1] | Cytoprotective effect (cell viability) [2] | Cytoprotective effect (cell viability) ([2]; listed as CPL503051) | Activation of downstream proteins (Akt1 and ERK1/2) after inhibition of TrkB kinase by K252a ([3]; K252a 1 μM 15 min before 100 μM compound) | Phosphorylation of TrkB and downstream proteins (PLCγ1, Akt1, ERK1/2) [3] | Metabolic stability in MLM (classification) [4] | Effect of cotreatment with K252a on the compound's effects ([1]; K252a 1 μM)
1 | O=C1C(O)=C(c2c[nH]c3ccccc23)C(=O)C(O)=C1c1c[nH]c2ccccc12 [CPL503052, didemethylasterriquinone D] | able to induce the phosphorylation of TrkB, Akt1, ERK1/2, and PLCγ1 | no cytoprotective properties | did not demonstrate any cytoprotective effect | did not repress | demonstrated the activation of the TrkB receptor and phosphorylation of relevant downstream proteins |  | 
2 | O=c1cc(-c2ccccc2)oc2c(O)c(O)ccc12 [7,8-DHF, 7,8-dihydroxyflavone] | did not result in the expected effect; also recorded: lack of 7,8-DHF activity | not able to protect; also recorded: not able to confirm any cytoprotective action |  |  | did not induce; also recorded: lack of 7,8-DHF activity | moderate degradation rate | 
3 | C=CC(C)(C)c1[nH]c2ccccc2c1C1=C(O)C(=O)C(c2c[nH]c3c(CC=C(C)C)cccc23)=C(O)C1=O [DMAQ-B1] | able to induce the phosphorylation of TrkB, Akt1, ERK1/2, and PLCγ1 | did not demonstrate any cytoprotective effect |  |  |  | instability of this compound in the experimental system | did not inhibit
4 | B1 | induced the TrkB receptor and phosphorylation of downstream proteins | dose-dependent cytoprotective effect |  |  | significantly increased phosphorylation |  | 
